Legend:
[1] = system: mouse model of warfarin‐associated ICH; design: method as in PMID 21127298; settings: cited from earlier work
MMP‐7 = target: T1, MMP‐7 (Homo sapiens, UniProt P09237); assay: MMP enzyme activity assay; format: biochemical
T1 construct: GenScript (contract testing)
T1 sequence (P09237 95-267): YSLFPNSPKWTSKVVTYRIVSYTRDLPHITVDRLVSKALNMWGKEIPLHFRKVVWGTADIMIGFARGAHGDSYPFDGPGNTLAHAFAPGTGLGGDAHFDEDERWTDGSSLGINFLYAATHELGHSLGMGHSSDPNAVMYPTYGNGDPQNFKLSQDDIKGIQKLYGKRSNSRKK
Description: Protease stock solutions (10 mmol/L) were diluted with assay buffer to make final test solutions containing no more than 2.0% DMSO. The samples were dispensed into plates; substrate was added and read with PHERAstar PLUS (BMG Labtech, Ortenberg, Germany) plate reader.

MMP‐12 = target: T2, MMP‐12 (Homo sapiens, UniProt P39900); assay: MMP enzyme activity assay; format: biochemical; settings: read-out: MMP Inhibitory Activity (IC50), MMP‐12
T2 construct: GenScript (contract testing)
Description: […]. Protease stock solutions (10 mmol/L) were diluted with assay buffer to make final test solutions containing no more than 2.0% DMSO. The samples were dispensed into plates; substrate was added and read with PHERAstar PLUS (BMG Labtech, Ortenberg, Germany) plate reader.

[2] = system: collagenase‐induced mouse model of ICH; design: method as in PMID 15800021; settings: 100 mg/kg intraperitoneally for 48 hours (not with 1 mg/kg); cited from earlier work
MMP‐10 = system: MMP‐10; design: method as in PMID 25686022; settings: previously reported; read-out: MMP Inhibitory Activity (IC50), MMP‐10; cited from earlier work
MMP‐3 = system: MMP‐3; design: method as in PMID 25686022; settings: previously reported; read-out: MMP Inhibitory Activity (IC50), MMP‐3; cited from earlier work

T2 sequence (P39900 106-470, species assumed): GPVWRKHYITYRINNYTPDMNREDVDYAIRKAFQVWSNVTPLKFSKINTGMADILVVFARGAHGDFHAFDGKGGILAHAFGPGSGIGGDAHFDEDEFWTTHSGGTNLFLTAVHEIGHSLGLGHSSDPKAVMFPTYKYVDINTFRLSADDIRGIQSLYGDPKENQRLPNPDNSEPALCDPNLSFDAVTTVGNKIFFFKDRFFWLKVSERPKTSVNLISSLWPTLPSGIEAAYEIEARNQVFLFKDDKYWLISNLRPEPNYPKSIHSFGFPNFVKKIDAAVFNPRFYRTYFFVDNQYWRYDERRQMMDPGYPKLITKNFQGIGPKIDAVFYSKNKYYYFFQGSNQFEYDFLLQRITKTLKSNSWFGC

Row | SMILES | effect on edema [1] | IC50 (MMP‐7) | IC50 (MMP‐12) | lesion volume and neurological outcome [2] | IC50 (MMP‐10) | IC50 (MMP‐3)
1 | NC[C@H]1CC[C@H](C(=O)O)CC1 [TXA, tranexamic acid] | exacerbates edema | – | – | – | – | –
2 | CNC(=O)[C@H](Cc1c[nH]c2ccccc12)NC(=O)[C@@H](CC(=O)NO)CC(C)C [GM6001] | – | 9 nM | 1.2 nM | decrease in lesion volume and improved neurological outcome | […] | 20.7 nM

— article PMC5669199, “CM352 Reduces Brain Damage and Improves Functional Recovery in a Rat Model of Intracerebral Hemorrhage” (Journal of the American Heart Association: Cardiovascular …, 2017)
